From the METLIN SMRT retention time set (Domingo-Almenara et al. 2019)

Test: gradient 5% acetonitrile 3 min, to 50% in 2 min, to 85% in 15 min, held 3 min, 100 µL/min
Conditions: column: Zorbax Extend-C18 2.1 x 50 mm; eluents: water / acetonitrile, 0.1% formic acid
Summary of the method: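 In both positive and negative ionization mode, a quadrupole time-of-flight mass spectrometer coupled to HPLC analyzed pure standards run in mixtures of ~100 molecules. The Zorbax Extend-C18 column (2.1 × 50 mm, 1.8 μm) was operated at 100 μL/min with water and acetonitrile, each containing 0.1% formic acid. The dead volume was 40 μL and the dwell volume 900 μL. Retention time came from adduct peaks that were computationally picked and individually inspected by hand.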

SMILES | RP-LC retention time
CCOc1ccc(-c2c(C)nn3c(C)c(C(=O)NCC4CCCN4CC)cnc23)cc1OCC (stereo unspecified) | 667 s
O=C(CCSc1ccccc1)NCC(c1ccco1)N1CCOCC1 (stereo unspecified) | 574 s
CCN(CC)C(=O)Cn1nc2ncccn2c1=O | 532 s
Cc1ccc(C)c(-c2csc(NC(=O)c3ccc4c(c3)OCO4)n2)c1 | 1140 s
CCc1ccc2c(c1)cc(S(=O)(=O)c1ccccc1)c(=O)n2CC(=O)NC(C)C | 882 s
O=C(N[C@H]1C[C@@H]2C[C@H]1N(C(=O)c1ccc3c(c1)OCO3)C2)c1ccccc1 | 721 s
CC(=O)N1CCc2c(-c3ccccc3)cccc2[C@H]1C | 976 s
CC(=O)Nc1cc(C(=O)NC(C)c2ccccc2)c2ccc(C)nc2c1 (stereo unspecified) | 1030 s
COc1ccc(N2CCN(C(=O)C3c4ccccc4CCN3C(=O)C3CC3)CC2)cc1 (stereo unspecified) | 811 s
COc1ccc(-c2nc3ncccn3c2Nc2ccc(F)cc2)cc1 | 714 s
CC(NC(=O)C(=O)NCC1CCN(C(=O)NC(C)(C)C)CC1)c1ccccc1 (stereo unspecified) | 749 s
COC(=O)C1=C(N)OC2=C(C(=O)CC(C)(C)C2)C1c1cccs1 (stereo unspecified) | 821 s
COc1nccnc1N1CCC(NC(=O)Cc2ccsc2)C1 (stereo unspecified) | 611 s
COCCNC(=O)CSc1cn(CC(=O)N2CC(C)OC(C)C2)c2ccccc12 (stereo unspecified) | 709 s
CCn1c(C(=O)N2CCN(c3ccccc3F)CC2)cc2c(-c3cccs3)nn(-c3ccccc3)c21 | 1270 s
COc1cccc(CNC(=O)C2(C)CCCN(S(=O)(=O)c3ccccc3C)C2)c1 (stereo unspecified) | 957 s
COc1cc(C2C(=O)N(C3CCCCC3)CC(=O)N2Cc2ccco2)ccc1OC(C)C (stereo unspecified) | 964 s
CCc1nn2c(CNC(=O)c3ccc(C(F)(F)F)cc3)c(C)nc2s1 | 714 s
COc1ccc(N2CCN(c3ncccc3-c3nc(-c4ccc(Cl)cc4)no3)CC2)cc1 | 1230 s

SMILES | RP-LC retention time
O=c1n(Cc2ccc(F)cc2)nc2c(S(=O)(=O)N3CCN(c4ccc(F)cc4)CC3)cccn12 | 991 s
CCN(CC)C(=O)Cn1nc2c(SCc3ccc(Cl)cc3)nccn2c1=O | 930 s
O=C(Nc1ccc(OCc2nnc(-c3ccccc3)o2)cc1)c1ccoc1 | 808 s
Cc1ccc(NC(=O)COc2cccc3c(=O)n(C)ccc23)cc1 | 795 s
CC(C)c1ccc(S(=O)(=O)N2CCc3c(c(-c4nnc(-c5ccccc5F)o4)nn3C)C2)cc1 | 1070 s
Cc1sc(NC(=O)c2ccco2)nc1-c1ccc2c(c1)NC(=O)CO2 | 770 s
CC(C)(C)c1ccc(-c2nc3ccccc3[nH]2)cc1 | 702 s
CN1CCN(C(=O)C2CCN(c3nc4ccc(-c5cccs5)nc4s3)CC2)CC1 | 646 s
Cc1sc2ncnc(SCC(=O)Nc3nc(-c4ccccc4)ns3)c2c1C | 1080 s
Cc1nc(-c2ccccc2OC2CN(S(=O)(=O)c3c(C)noc3C)C2)no1 | 904 s
COc1cccc(N2CCN(c3ccnc(SCC(=O)NCCCc4ccccc4)n3)CC2)c1 | 804 s
Cc1ccc2nc(SCc3noc(CCC(=O)Nc4nc(-c5ccccc5)cs4)n3)[nH]c2c1 | 802 s
Cn1cnc(S(=O)(=O)N2CCC3(CC2)N(c2ccccc2)C(=O)CS3=O)c1 (stereo unspecified) | 593 s
CC1Oc2ccc(-c3csc(NC(=O)c4cccc(F)c4)n3)cc2N(C)C1=O (stereo unspecified) | 943 s
CCNC(=O)CCCN1C(=O)CCn2nc(-c3cn(C)c4ccccc34)cc21 | 695 s
CC(C)NC(=O)N1CCC(OCc2ccccc2)C1 (stereo unspecified) | 742 s
NC(=O)C1CCN(C(=O)CN2CCN(c3cccc(Cl)c3)CC2)CC1 | 600 s
COc1ccc(OC)c(NC(=O)NCC(c2cccnc2)c2cn(C)c3ccccc23)c1 (stereo unspecified) | 713 s
Cc1ccc(=O)n(CCNC(=O)c2cc(C)oc2C)n1 | 616 s

SMILES | RP-LC retention time
CCNc1cc(N2CCCC(CCC(=O)N(C)Cc3cn(C)nc3C)C2)ncn1 (stereo unspecified) | 598 s
CCc1noc(-c2ccnc(-n3cnc(C(=O)NCc4ccccc4C)c3)c2)n1 | 939 s
CCOC(=O)c1ccccc1NC(=O)N(Cc1cc(=O)[nH]c2ccccc12)CC(C)C | 1090 s
Cc1ccc(NS(=O)(=O)c2ccc(-c3nnc(C4CCC4)o3)o2)c(C)c1 | 977 s
CCCNC(=O)C1CCN(c2ccc(SCC(=O)Nc3ccccc3OC)nn2)CC1 | 611 s
CCOC(=O)c1ccc(N2C(=O)[C@@H]3Cc4ccccc4CN3C2=O)cc1 | 970 s
O=C1[C@H]2CN(Cc3cc(F)c(F)c(F)c3)C[C@H]2C(=O)N1CCc1ccccc1 | 982 s
Cc1cccc(Cn2nc(-c3nc(-c4ccc(F)cc4)no3)ccc2=O)c1 | 1160 s
Cn1c(N)c(C(=O)c2ccco2)c(=O)n(C)c1=O | 560 s
CCCN(C)c1nccn2c(=O)n(CC(=O)Nc3cc(C)ccc3C)nc12 | 696 s
Cc1c(C(=O)Nc2nccs2)nnn1-c1ccc2noc(-c3ccc(Cl)cc3)c2c1 | 1020 s
CCOC(=O)c1[nH]c(C)c(CCC(=O)N2CCC(C(=O)N3CCCC3)CC2)c1C | 687 s
Cc1cc2n(n1)CCC(=O)N2CCCC(=O)NCCc1cccs1 | 648 s
Cn1c(N2CCN(C(=O)c3ccccc3Br)CC2)cc(=O)n(C)c1=O | 668 s
COCCN1C(=O)CCc2cc(NS(=O)(=O)c3cc(C)cc(C)c3)ccc21 | 816 s
CCn1ccc2cc(S(=O)(=O)N3CCCC(C(=O)N4CCN(c5ccccn5)CC4)C3)ccc21 (stereo unspecified) | 609 s
COc1ccc(-n2nc3c(N4CCCC(C(=O)NCCc5ccccc5)C4)nnc(C)c3c2C)cc1 (stereo unspecified) | 740 s
O=S(=O)(c1cc(F)cc(F)c1)N1CCN(Cc2cccc(F)c2)C2(CCOCC2)C1 | 958 s

Further lines, results first:

RP-LC retention time | SMILES
757 s | COc1ccccc1CNC(=O)c1cn(-c2cc(N3CCOCC3)ncn2)cn1
610 s | O=C(NC1CCCCCC1)C1CCN(c2ccncc2)CC1
763 s | Cc1cccc(Cn2nc3n(c2=O)CCCCC3)c1
648 s | O=C(Nc1ccc(F)c(Cl)c1)c1cn2c(n1)CCCC2
620 s | CC(CCc1ccco1)NC(=O)C1CCc2nc(N3CCCC3)ncc2C1 (stereo unspecified)
892 s | CCN1CCn2cc(S(=O)(=O)N3CCN(c4ccccc4Cl)CC3)cc2C1=O
797 s | CCn1c(=O)c(C(=O)NCc2cccc(F)c2)nc2cccnc21
659 s | CC(C)NC(=O)NC1CCN(c2ccc(F)cc2)C1=O (stereo unspecified)
853 s | Cc1ccc(CNC(=O)C2(c3ccc(NC(=O)C4CC4)cc3)CCC2)cc1
661 s | CCOc1ccc(Nc2c(C(=O)N3CCC(C)CC3)cnc3nc(C)ccc23)cc1
587 s | Cc1nn(CC(=O)NCCCN2CCCC2)c(=O)c2cc(-c3ccccc3)nn12
1050 s | COc1ccc(C)cc1NC(=O)c1cc(C)n2nccc2n1
644 s | Cc1oc2c(c1C(=O)Nc1ccc(Br)cc1)C1=NCCN1C=N2
1110 s | CC(C)(C)c1cc(C(=O)NCc2cccs2)nc2ccnn12
838 s | Nc1ncnc(Nc2cccc3c2CCCC3)c1[N+](=O)[O-]
733 s | Cc1ccc(S(=O)(=O)N2CCC(c3nc(C(=O)N4CCCC4)c(C)o3)CC2)cc1
774 s | O=C(c1ccc(Cn2cncn2)cc1)N1CCN(c2ccc(Cl)cc2)CC1
1140 s | CC(C)c1cc(C(=O)Nc2ccc(Cl)cc2F)no1

RP-LC retention time | SMILES
835 s | CCCn1cc(CCNC(=O)Nc2ccc(F)c(Cl)c2)c2cccnc21
726 s | COc1cc(CNC(=O)c2ccc3c(c2)NC(=O)C2CCCCN32)cc(OC)c1OC (stereo unspecified)
595 s | O=C(c1cccc(Br)c1)N1CCc2nc[nH]c2C1
583 s | O=C(NCc1ccccc1Cl)C(=O)N1CCN(Cc2ccc3c(c2)OCO3)CC1
1040 s | CCc1cccc(NC(=O)c2sc(-c3cn(C)c4ncccc34)nc2C)c1
847 s | Cc1cccc(CNC(=O)CN2CCN(Cc3cccc(Cl)c3)C2=O)c1
828 s | COc1ccccc1-c1nnc(-c2cc(S(=O)(=O)N3CCOCC3)ccc2F)o1
876 s | Cc1ccccc1-c1nc(N)n(C(=O)C2CC2)n1
588 s | CCn1cnc(S(=O)(=O)N2CCC(C(=O)Nc3ccc(C)c(N(C)C)c3)CC2)c1
1030 s | CCn1c(=O)c(N2CCC(NC(=O)Nc3ccccc3Br)CC2)nc2ccccc21
761 s | CCn1c(=O)sc2cc(S(=O)(=O)N3CCC(C(=O)N4CCCC4)CC3)ccc21
661 s | O=C(Nc1cccnc1)c1cccc([N+](=O)[O-])c1
655 s | COc1cc(NC(=O)Cn2c(N3CCOCC3)nc(C)cc2=O)cc(OC)c1
652 s | Cc1c(Cl)cccc1NC(=O)c1ccc(-n2ccnc2)nn1
804 s | O=C(Cn1nc2c(Oc3ccc(F)cc3)nccn2c1=O)NC1CCCCC1
567 s | CN1CCCC1c1nc(C2CN(C(=O)c3ccsc3)C2)no1 (stereo unspecified)
739 s | Cn1c(C2CCN(S(C)(=O)=O)CC2)nn(Cc2ccc(Cl)c(Cl)c2)c1=O
